From patent US20200024278A1, “COMPOSITION COMPRISING ANTIBIOTIC COMPOUND AND AN HETEROCYCLIC COMPOUND AND THEIR USE IN PREVENTING OR TREATING BACTERIAL INFECTIONS” (MUTABILIS, priority 2016, published 2020)
Read-outs that look alike come from different tables or passages of the source.

Key:
Test in all cases: MIC, broth microdilution (CLSI), substance alone or ATB combined with compound at 4 or 8 μg/mL
ECO 190317 = format: cell-based, E. coli; conditions: Escherichia coli, ECO 190317
In short: (§1)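 Potentiation format: antibiotic dilution series run with test compound held at 4 or 8 μg/mL, alongside compound-alone MICs. Broth microdilution per CLSI in ca-MHB, 16-20 h at 35° C.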

ECO UFR39 = format: cell-based, E. coli; conditions: Escherichia coli, ECO UFR39
In short: as §1

KPN 6299 = format: cell-based, K. pneumoniae; conditions: Klebsiella pneumoniae
In short: as §1

KPN BAA-1898 = format: cell-based, K. pneumoniae; conditions: Klebsiella pneumoniae, BAA1898, KPN BAA-1898
In short: as §1

KPN UFR42 = format: cell-based, K. pneumoniae; conditions: Klebsiella pneumoniae, KPN UFR42
In short: as §1

KPN UFR68 = format: cell-based, K. pneumoniae; conditions: Klebsiella pneumoniae, substance alone
In short: as §1

ECL P99 = format: cell-based, E. cloacae; conditions: Enterobacter cloacae, ECL P99
In short: as §1

PAE 105250 = format: cell-based, P. aeruginosa; conditions: Pseudomonas aeruginosa, PAE 105250
In short: as §1

PAE UFR48 = format: cell-based, P. aeruginosa; conditions: Pseudomonas aeruginosa, PAE UFR48
In short: as §1

PAE UFR90 = format: cell-based, P. aeruginosa; conditions: Pseudomonas aeruginosa, PAE UFR90
In short: as §1

SAU 29213 = format: cell-based, S. aureus; conditions: Staphylococcus aureus
In short: as §1

SPN 49619 = format: cell-based, S. pneumoniae; conditions: Streptococcus pneumoniae, SPN 49619
In short: as §1

[1] = antibiotic alone, read-out: MIC ATB alone

SMILES: CCN1CCN(C(=O)N[C@@H](C(=O)N[C@@H]2C(=O)N3[C@@H]2SC(C)(C)[C@@H]3C(=O)O)c2ccccc2)C(=O)C1=O [PIP, Piperacillin, reference compound]
- MIC (ECO 190317; [1]): > 1020 µg/mL
- MIC (ECO 190317; substance alone, read-out: MIC): > 1020 µg/mL
- MIC (ECO UFR39; [1]): > 1020 µg/mL
- MIC (ECO UFR39; substance alone, read-out: MIC): > 1020 µg/mL
- MIC (KPN 6299; [1]): > 1020 µg/mL
- MIC (KPN 6299; substance alone, read-out: MIC): > 1020 µg/mL
- MIC (KPN BAA-1898; [1]): > 1020 µg/mL
- MIC (KPN BAA-1898; substance alone, read-out: MIC): > 1020 µg/mL
- MIC (KPN UFR42; [1]): > 256 µg/mL
- MIC (KPN UFR42; substance alone, read-out: MIC): > 256 µg/mL
- MIC (KPN UFR68): > 1020 µg/mL
- MIC (ECL P99; [1]): 512 µg/mL
- MIC (ECL P99; substance alone, read-out: MIC): 512 µg/mL
- MIC (PAE 105250; [1]): 128 µg/mL
- MIC (PAE 105250; substance alone, read-out: MIC): 128 µg/mL
- MIC (PAE UFR48; [1]): 256 µg/mL
- MIC (PAE UFR48; substance alone, read-out: MIC): 256 µg/mL
- MIC (PAE UFR90; [1]): 256 µg/mL
- MIC (PAE UFR90; substance alone, read-out: MIC): 256 µg/mL
- MIC (SAU 29213; antibiotic alone, SAU 29213, read-out: MIC ATB alone): 8 µg/mL
- MIC (SAU 29213; substance alone, SAU 29213 (MSSA 29213), read-out: MIC): 8 µg/mL
- MIC (SPN 49619; [1]): 0.5 µg/mL
- MIC (SPN 49619; substance alone, read-out: MIC): 0.5 µg/mL
